Test results as given in US11021467B2, “Phosphatidylinositol 3-kinase inhibitors” (Gilead Sciences, Inc., priority 2014, dated 2021).

Tests used:
Assay in all cases: TR-FRET enzymatic activity assay against PI3K isoforms
Type in all cases: biochemical
[1] = target: PI3Kβ (Homo sapiens (Human), UniProt P42338); conditions: PI3Kβ, TR-FRET, 2×Km ATP, 30 minutes at 25° C.
Source text: (§1) The compounds of formula (I) were characterized for their enzymatic activity against the PI3K isoforms. […] TR-FRET monitored the formation of 3,4,5-inositol triphosphate molecule that competed with fluorescently labeled PIP3 for binding to the GRP-1 pleckstrin homology domain protein.

[2] = target: PI3Kδ (Homo sapiens (Human), UniProt O00329); conditions: 2×Km ATP, 30 minutes at 25° C.
Chain of PI3Kδ (O00329 whole entry): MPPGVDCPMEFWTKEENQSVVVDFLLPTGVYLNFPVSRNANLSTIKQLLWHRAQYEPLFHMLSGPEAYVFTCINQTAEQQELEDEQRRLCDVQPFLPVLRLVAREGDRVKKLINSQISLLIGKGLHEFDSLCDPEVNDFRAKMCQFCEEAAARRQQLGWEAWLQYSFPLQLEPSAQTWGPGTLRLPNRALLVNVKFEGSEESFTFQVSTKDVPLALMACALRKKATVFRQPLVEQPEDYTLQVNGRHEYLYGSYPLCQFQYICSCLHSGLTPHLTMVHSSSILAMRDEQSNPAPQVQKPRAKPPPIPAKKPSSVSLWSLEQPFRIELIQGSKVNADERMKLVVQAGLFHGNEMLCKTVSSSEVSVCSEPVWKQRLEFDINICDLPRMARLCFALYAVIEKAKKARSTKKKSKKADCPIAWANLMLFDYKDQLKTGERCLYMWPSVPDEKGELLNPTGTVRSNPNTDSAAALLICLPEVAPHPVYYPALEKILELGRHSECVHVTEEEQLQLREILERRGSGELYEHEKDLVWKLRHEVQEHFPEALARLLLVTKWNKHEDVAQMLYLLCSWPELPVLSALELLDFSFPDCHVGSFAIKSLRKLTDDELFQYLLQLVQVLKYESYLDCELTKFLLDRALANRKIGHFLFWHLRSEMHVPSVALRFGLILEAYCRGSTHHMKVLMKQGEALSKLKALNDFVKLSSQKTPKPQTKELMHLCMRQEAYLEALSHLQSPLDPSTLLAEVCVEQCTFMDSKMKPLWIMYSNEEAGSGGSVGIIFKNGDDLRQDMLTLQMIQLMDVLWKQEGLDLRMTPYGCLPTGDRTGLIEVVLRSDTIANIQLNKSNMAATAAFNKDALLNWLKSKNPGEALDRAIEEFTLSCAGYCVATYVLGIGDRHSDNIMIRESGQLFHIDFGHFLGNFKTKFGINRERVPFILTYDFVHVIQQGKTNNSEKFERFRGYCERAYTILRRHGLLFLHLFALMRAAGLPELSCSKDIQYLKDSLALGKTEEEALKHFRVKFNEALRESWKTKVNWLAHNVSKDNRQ
Chain of PI3Kδ (P27986 whole entry partner): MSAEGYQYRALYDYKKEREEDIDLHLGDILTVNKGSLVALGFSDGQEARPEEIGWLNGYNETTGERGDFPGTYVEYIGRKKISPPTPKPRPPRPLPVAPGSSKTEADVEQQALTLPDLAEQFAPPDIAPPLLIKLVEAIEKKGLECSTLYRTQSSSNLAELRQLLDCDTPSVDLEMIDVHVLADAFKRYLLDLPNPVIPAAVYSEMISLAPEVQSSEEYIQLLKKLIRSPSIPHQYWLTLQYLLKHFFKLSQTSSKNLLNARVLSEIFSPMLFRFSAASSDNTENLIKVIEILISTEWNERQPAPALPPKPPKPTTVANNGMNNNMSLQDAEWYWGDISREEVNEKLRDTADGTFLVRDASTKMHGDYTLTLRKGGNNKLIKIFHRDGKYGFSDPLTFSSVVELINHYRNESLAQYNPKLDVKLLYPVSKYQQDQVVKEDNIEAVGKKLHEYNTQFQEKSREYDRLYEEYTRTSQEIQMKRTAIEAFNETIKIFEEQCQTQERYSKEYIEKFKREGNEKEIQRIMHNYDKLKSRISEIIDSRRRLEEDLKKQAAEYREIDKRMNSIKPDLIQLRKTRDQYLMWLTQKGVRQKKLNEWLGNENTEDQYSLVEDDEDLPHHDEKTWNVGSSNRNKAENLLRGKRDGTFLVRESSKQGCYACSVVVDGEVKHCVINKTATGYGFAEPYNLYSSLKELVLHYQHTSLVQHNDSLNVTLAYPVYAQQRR
Source text: as §1

[3] = target: PI3Kγ (Homo sapiens (Human), UniProt P48736); conditions: 2×Km ATP, 30 minutes at 25° C.
Chain of PI3Kγ (P48736 whole entry): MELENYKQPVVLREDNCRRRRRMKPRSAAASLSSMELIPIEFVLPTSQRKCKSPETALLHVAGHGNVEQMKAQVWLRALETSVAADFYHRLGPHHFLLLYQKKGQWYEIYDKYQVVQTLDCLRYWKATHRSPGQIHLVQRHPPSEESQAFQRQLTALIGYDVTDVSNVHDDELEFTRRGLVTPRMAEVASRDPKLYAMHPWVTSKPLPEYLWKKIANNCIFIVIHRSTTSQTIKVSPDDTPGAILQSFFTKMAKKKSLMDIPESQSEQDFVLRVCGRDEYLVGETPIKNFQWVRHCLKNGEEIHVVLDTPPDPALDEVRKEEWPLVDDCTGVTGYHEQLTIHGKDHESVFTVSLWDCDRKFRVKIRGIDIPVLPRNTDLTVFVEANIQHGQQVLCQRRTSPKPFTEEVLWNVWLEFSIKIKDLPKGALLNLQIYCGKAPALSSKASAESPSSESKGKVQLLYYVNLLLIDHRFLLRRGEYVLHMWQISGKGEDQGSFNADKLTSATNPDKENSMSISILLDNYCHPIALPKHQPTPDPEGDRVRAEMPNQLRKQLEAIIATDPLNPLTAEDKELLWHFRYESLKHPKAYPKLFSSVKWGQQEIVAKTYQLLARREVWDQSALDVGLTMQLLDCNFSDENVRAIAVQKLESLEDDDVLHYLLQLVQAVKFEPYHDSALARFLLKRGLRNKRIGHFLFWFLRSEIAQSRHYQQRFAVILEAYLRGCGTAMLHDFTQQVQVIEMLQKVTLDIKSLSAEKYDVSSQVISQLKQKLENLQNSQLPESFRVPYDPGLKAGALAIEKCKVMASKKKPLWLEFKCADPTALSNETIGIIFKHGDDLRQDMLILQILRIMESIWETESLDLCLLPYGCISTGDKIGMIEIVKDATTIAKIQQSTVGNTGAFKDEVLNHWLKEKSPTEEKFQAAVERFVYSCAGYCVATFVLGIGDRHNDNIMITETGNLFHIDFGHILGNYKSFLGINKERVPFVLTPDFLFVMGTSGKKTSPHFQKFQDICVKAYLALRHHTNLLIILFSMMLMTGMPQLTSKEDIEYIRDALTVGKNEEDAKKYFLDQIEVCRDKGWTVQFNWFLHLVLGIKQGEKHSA
Source text: as §1

Chain of PI3Kβ (P42338 whole entry, the tested form may be a part, canonical isoform): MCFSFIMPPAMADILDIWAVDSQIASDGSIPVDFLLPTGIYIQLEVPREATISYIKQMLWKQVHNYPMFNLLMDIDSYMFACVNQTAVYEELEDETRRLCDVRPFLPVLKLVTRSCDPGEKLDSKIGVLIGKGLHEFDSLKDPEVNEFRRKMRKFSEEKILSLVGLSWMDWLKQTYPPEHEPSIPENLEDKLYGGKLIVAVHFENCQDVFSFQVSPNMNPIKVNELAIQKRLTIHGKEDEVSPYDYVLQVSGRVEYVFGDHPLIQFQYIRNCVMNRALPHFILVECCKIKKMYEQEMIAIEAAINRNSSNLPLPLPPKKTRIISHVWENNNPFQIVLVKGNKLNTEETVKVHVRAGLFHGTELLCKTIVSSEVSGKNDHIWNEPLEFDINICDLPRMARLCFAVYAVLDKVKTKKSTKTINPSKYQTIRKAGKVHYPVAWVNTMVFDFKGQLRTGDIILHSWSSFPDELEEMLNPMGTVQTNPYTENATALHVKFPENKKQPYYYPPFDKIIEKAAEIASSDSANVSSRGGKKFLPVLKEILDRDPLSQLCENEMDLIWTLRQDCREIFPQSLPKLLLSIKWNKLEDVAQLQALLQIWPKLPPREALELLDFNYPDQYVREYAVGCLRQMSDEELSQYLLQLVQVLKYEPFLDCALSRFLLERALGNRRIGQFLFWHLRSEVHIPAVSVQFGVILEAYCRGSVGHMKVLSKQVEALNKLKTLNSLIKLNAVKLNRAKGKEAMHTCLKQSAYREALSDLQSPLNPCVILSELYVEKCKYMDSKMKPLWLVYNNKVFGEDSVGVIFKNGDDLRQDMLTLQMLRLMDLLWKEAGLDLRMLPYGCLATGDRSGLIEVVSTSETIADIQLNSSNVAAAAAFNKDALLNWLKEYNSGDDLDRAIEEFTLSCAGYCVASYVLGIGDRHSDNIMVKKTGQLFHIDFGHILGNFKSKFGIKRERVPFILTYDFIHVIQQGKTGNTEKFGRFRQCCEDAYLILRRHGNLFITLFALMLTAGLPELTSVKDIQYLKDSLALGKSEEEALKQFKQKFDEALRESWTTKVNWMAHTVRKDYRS
Chain of PI3Kβ (P27986 whole entry partner, the tested form may be a part, canonical isoform): as the sequence (P27986 whole entry partner) above

| Compound | IC50 [1] [nM] | IC50 [2] [nM] | IC50 [3] [nM] |
| --- | --- | --- | --- |
| CC(=O)NCCCn1c([C@@H](Nc2nc(N)nc(N)c2C#N)C2CC2)nc2cccc(Cl)c2c1=O [Compound 53, (S)—N-(3-(5-chloro-2-(cyclopropyl((2,6-diamino-5-cyanopyrimidin-4-yl)amino)methyl)-4-oxoquinazolin-3(4H)-yl)propyl)acetamide] | 9 | 2 | 190 |
| N#Cc1c(N)nc(N)nc1N[C@H](c1nc2cccc(Cl)c2c(=O)n1CCCNC1CCC(F)(F)CC1)C1CC1 [Compound 56, (S)-2,4-diamino-6-(((5-chloro-3-(3-((4,4-difluorocyclohexyl)amino)propyl)-4-oxo-3,4-dihydroquinazolin-2-yl)(cyclopropyl)methyl)amino)pyrimidine-5-carbonitrile] | 4 | 0.4 | 540 |
| C[C@H](Nc1ncnc(N)c1C#N)c1nc2cccc(Cl)c2c(=O)n1CCCN(C)C [Compound 57, (S)-4-amino-6-((1-(5-chloro-3-(3-(dimethylamino)propyl)-4-oxo-3,4-dihydroquinazolin-2-yl)ethyl)amino)pyrimidine-5-carbonitrile] | 480 | 6 | ≥ 10000 |
| C[C@H](Nc1nc(N)nc(N)c1C#N)c1nc2cccc(Cl)c2c(=O)n1CCCN(C)Cc1ccccc1 [Compound 60, (S)-2,4-diamino-6-((1-(3-(3-(benzyl(methyl)amino)propyl)-5-chloro-4-oxo-3,4-dihydroquinazolin-2-yl)ethyl)amino)pyrimidine-5-carbonitrile] | 150 | 4 | 6400 |
| Cc1nc(N)nc(N[C@@H](C)c2nc3cccc(Cl)c3c(=O)n2CCCN(C)Cc2ccccc2)c1C#N [Compound 61, (S)-2-amino-4-((1-(3-(3-(benzyl(methyl)amino)propyl)-5-chloro-4-oxo-3,4-dihydroquinazolin-2-yl)ethyl)amino)-6-methylpyrimidine-5-carbonitrile] | 140 | 7 | 6600 |
| C[C@H](Nc1nc(N)nc(N)c1C#N)c1nc2cccc(Cl)c2c(=O)n1CCCN(C)CC(F)(F)F [Compound 62, (S)-2,4-diamino-6-((1-(5-chloro-3-(3-(methyl(2,2,2-trifluoroethyl)amino)propyl)-4-oxo-3,4-dihydroquinazolin-2-yl)ethyl)amino)pyrimidine-5-carbonitrile] | 320 | 4 | 960 |
| N#CCCn1c([C@@H](Nc2nc(N)nc(N)c2Cl)C2CC2)nc2cccc(Cl)c2c1=O [Compound 63, (S)-3-(5-chloro-2-(cyclopropyl((2,6-diamino-5-chloropyrimidin-4-yl)amino)methyl)-4-oxoquinazolin-3(4H)-yl)propanenitrile] | 640 | 2 | 800 |
| N#Cc1c(N)nc(N)nc1N[C@H](c1nc2cccc(Cl)c2c(=O)n1CCCCC(N)=O)C1CC1 [Compound 64, (S)-5-(5-chloro-2-(cyclopropyl((2,6-diamino-5-cyanopyrimidin-4-yl)amino)methyl)-4-oxoquinazolin-3(4H)-yl)pentanamide] | 12 | 1 | 110 |
| N#Cc1c(N)nc(N)nc1N[C@H](c1nc2c(Cl)ccc(Cl)c2c(=O)n1CCCC(N)=O)C1CC1 [Compound 65, (S)-4-(5,8-dichloro-2-(cyclopropyl((2,6-diamino-5-cyanopyrimidin-4-yl)amino)methyl)-4-oxoquinazolin-3(4H)-yl)butanamide] | 7 | 1 | 470 |
| N#Cc1c(N)nc(N)nc1N[C@H](c1nc2cccc(Cl)c2c(=O)n1CCCC(N)=O)C1CC1 [Compound 66, (S)-4-(5-chloro-2-(cyclopropyl((2,6-diamino-5-cyanopyrimidin-4-yl)amino)methyl)-4-oxoquinazolin-3(4H)-yl)butanamide] | 4 | 1 | 97 |
| NC(=O)CCn1c([C@@H](Nc2nc(N)nc(N)c2Cl)C2CC2)nc2cccc(Cl)c2c1=O [Compound 68, (S)-3-(5-chloro-2-(cyclopropyl((2,6-diamino-5-chloropyrimidin-4-yl)amino)methyl)-4-oxoquinazolin-3(4H)-yl)propanamide] | 520 | 5 | 1000 |
| C[C@H](Nc1ncnc2scnc12)c1nc2cccc(Cl)c2c(=O)n1CCCN [Compound 72, (S)-3-(3-aminopropyl)-5-chloro-2-(1-(thiazolo[5,4-d]pyrimidin-7-ylamino)ethyl)quinazolin-4(3H)-one] | 35 | 12 | 7900 |
| C[C@H](Nc1ncnc(N)c1C#N)c1nc2cccc(Cl)c2c(=O)n1CCCN [Compound 73, (S)-4-amino-6-((1-(3-(3-aminopropyl)-5-chloro-4-oxo-3,4-dihydroquinazolin-2-yl)ethyl)amino)pyrimidine-5-carbonitrile] | 21 | 6 | 9400 |
| C[C@H](Nc1nc(N)nc(N)c1C#N)c1nc2cccc(Cl)c2c(=O)n1Cc1cn[nH]c1 [Compound 79, (S)-4-((1-(3-((1H-pyrazol-4-yl)methyl)-5-chloro-4-oxo-3,4-dihydroquinazolin-2-yl)ethyl)amino)-2,6-diaminopyrimidine-5-carbonitrile] | 40 | 2 | 380 |

Further lines, results first:

| IC50 [1] [nM] | IC50 [2] [nM] | IC50 [3] [nM] | Compound |
| --- | --- | --- | --- |
| 5 | 0.4 | 830 | N#Cc1c(N)nc(N)nc1N[C@H](c1nc2cccc(Cl)c2c(=O)n1CCCNC1CCC1)C1CC1 [Compound 54, (S)-2,4-diamino-6-(((5-chloro-3-(3-(cyclobutylamino)propyl)-4-oxo-3,4-dihydroquinazolin-2-yl)(cyclopropyl)methyl)amino)pyrimidine-5-carbonitrile] |
| 4 | 0.5 | 280 | N#Cc1c(N)nc(N)nc1N[C@H](c1nc2cccc(Cl)c2c(=O)n1CCCNC1COC1)C1CC1 [Compound 55, (S)-2,4-diamino-6-(((5-chloro-3-(3-(oxetan-3-ylamino)propyl)-4-oxo-3,4-dihydroquinazolin-2-yl)(cyclopropyl)methyl)amino)pyrimidine-5-carbonitrile] |
| 460 | 24 | 6600 | C[C@H](Nc1nc(N)nc(N)c1C#N)c1nc2cccc(Cl)c2c(=O)n1CCN(C)C [Compound 58, (S)-2,4-diamino-6-((1-(5-chloro-3-(2-(dimethylamino)ethyl)-4-oxo-3,4-dihydroquinazolin-2-yl)ethyl)amino)pyrimidine-5-carbonitrile] |
| 500 | 8 | 2200 | NC(=O)CCCCn1c([C@@H](Nc2nc(N)nc(N)c2Cl)C2CC2)nc2cccc(Cl)c2c1=O [Compound 59, (S)-5-(5-chloro-2-(cyclopropyl((2,6-diamino-5-chloropyrimidin-4-yl)amino)methyl)-4-oxoquinazolin-3(4H)-yl)pentanamide] |
| 49 | 2 | 1300 | NC(=O)CCCn1c([C@@H](Nc2nc(N)nc(N)c2Cl)C2CC2)nc2cccc(Cl)c2c1=O [Compound 69, (S)-4-(5-chloro-2-(cyclopropyl((2,6-diamino-5-chloropyrimidin-4-yl)amino)methyl)-4-oxoquinazolin-3(4H)-yl)butanamide] |
| 240 | 34 | ≥ 10000 | C[C@H](Nc1ncnn2ccnc12)c1nc2cccc(Cl)c2c(=O)n1CCCN [Compound 71, (S)-3-(3-aminopropyl)-5-chloro-2-(1-(imidazo[2,1-f][1,2,4]triazin-4-ylamino)ethyl)quinazolin-4(3H)-one] |
| 17 | 1 | 1620 | CC(C)NCC(O)CCn1c([C@H](C)Nc2nc(N)nc(N)c2C#N)nc2cccc(Cl)c2c1=O (stereo partly drawn) [Compound 74, 2,4-diamino-6-(((1S)-1-(5-chloro-3-(3-hydroxy-4-(isopropylamino)butyl)-4-oxo-3,4-dihydroquinazolin-2-yl)ethyl)amino)pyrimidine-5-carbonitrile] |
| 19 | 1 | 2300 | C[C@H](Nc1nc(N)nc(N)c1C#N)c1nc2cccc(Cl)c2c(=O)n1CCC(O)CNC(C)(C)C (stereo partly drawn) [Compound 75, 2,4-diamino-6-(((1S)-1-(3-(4-(tert-butylamino)-3-hydroxybutyl)-5-chloro-4-oxo-3,4-dihydroquinazolin-2-yl)ethyl)amino)pyrimidine-5-carbonitrile] |
| 46 | 2 | 160 | C[C@H](Nc1nc(N)nc(N)c1C#N)c1nc2cccc(Cl)c2c(=O)n1Cc1cc[nH]n1 [Compound 76, (S)-4-((1-(3-((1H-pyrazol-3-yl)methyl)-5-chloro-4-oxo-3,4-dihydroquinazolin-2-yl)ethyl)amino)-2,6-diaminopyrimidine-5-carbonitrile] |
| 860 | 33 | 7000 | C[C@H](Nc1ncnc(N)c1C#N)c1nc2cccc(Cl)c2c(=O)n1Cc1cc[nH]n1 [Compound 77, (S)-4-((1-(3-((1H-pyrazol-3-yl)methyl)-5-chloro-4-oxo-3,4-dihydroquinazolin-2-yl)ethyl)amino)-6-aminopyrimidine-5-carbonitrile] |
| 920 | 49 | 3000 | C[C@H](Nc1ncnn2ccnc12)c1nc2cccc(Cl)c2c(=O)n1Cc1cc[nH]n1 [Compound 78, (S)-3-((1H-pyrazol-3-yl)methyl)-5-chloro-2-(1-(imidazo[2,1-f][1,2,4]triazin-4-ylamino)ethyl)quinazolin-4(3H)-one] |
| 1100 | 27 | 2400 | C[C@H](Nc1nc(N)nc(N)c1C#N)c1nc2cccc(Cl)c2c(=O)n1Cc1ncc[nH]1 [Compound 80, (S)-4-((1-(3-((1H-imidazol-2-yl)methyl)-5-chloro-4-oxo-3,4-dihydroquinazolin-2-yl)ethyl)amino)-2,6-diaminopyrimidine-5-carbonitrile] |
